From publication PMC6895199, “A new antiviral scaffold for human norovirus identified with computer-aided approaches on the viral polymerase” (Scientific Reports, 2019)
Read-outs that look alike come from different tables or passages of the source.

Assays:
[1] = Cytotoxicity by the MTS method on uninfected cells; assay type: cell-based; conditions: mouse, uninfected RAW 264.7 cells, Table 2, at least three independent experiments
Experimental: Cytotoxicity: The cytotoxicity of the Compounds was evaluated by the MTS method, by exposing uninfected cells to the same concentrations of compounds for 3 days. The %cell viability was calculated as (ODtreated/ODCC) × 100, where ODCC is the OD of uninfected untreated cells and ODtreated are uninfected cells treated with compound. The CC50 was defined as the compound concentration that reduces the number of viable cells by 50%[34].

HuNoV GI.1 replicon = experiment: HuNoV GI replicon assay (HGT-NV cells, qRT-PCR); assay type: cell-based, human norovirus GI.1
Experimental: Given that in this system the gene encoding for the major capsid protein is replaced by a neomycin resistance gene, no new virus particles will be produced but the non-structural proteins are expressed and the replication of the genomic RNA can be studied.
Cells and virus: MNV (virus strain MNV-1.CW1) was propagated in RAW 264.7 cells grown in DMEM (Life Technologies, Gent, Belgium) supplemented with 10% or 2% FBS, 2 mM L-glutamine, 20 mM HEPES, 0.075 g/L sodium bicarbonate, 1 mM sodium pyruvate, 100 U penicillin/mL and 100 µg/mL streptomycin at 37 °C in a humidified atmosphere of 5% CO2. The human norovirus GI.1 replicon harboring gastric tumor-1 cell line (HGT-NV) (kindly provided by Dr. Ian Goodfellow, University of Cambridge) was maintained in DMEM supplemented with 10% FBS, 2mM L-glutamine, 0.075 g/L sodium bicarbonate and 1.0 mg/ml of Geneticin (G418; Life Technologies), at 37 °C in a humidified atmosphere of 5% CO2[34].
Antiviral assay with the HGT-NV replicon: The inhibitory effect of Compounds on human norovirus replication was assessed by quantification of the levels of HuNoV GI replicon RNA and of the reference (housekeeping) gene β-actin mRNA [by quantitative reverse transcription polymerase chain reaction (qRT-PCR)]. To this end, HGT cells (2000 cells/well) were seeded in 96-well plates, in complete DMEM without the selection marker G418. Following an incubation period of 24 h, a serial dilution of rupintrivir was added to the cultures. After 72 h of incubation, cell monolayers were washed with phosphate-buffered saline (PBS) and collected for quantification of RNA load by qRT-PCR. Intracellular RNA was extracted from cells using the cell-to-cDNA lysis buffer (Ambion, Life Technologies). For detection of HuNoV GI replicon RNA, forward (5′-CCG GCT ACC TGC CCA TTC-3′), reverse (5′-CCAGATCATCCTGATCGACAAG-3′) primers and probe (5′-FAM-ACATCGCATCGAGCGAGCACGTAC-TAMRA-3′) for the neomycin gene were used. For detection of β-actin mRNA, forward (5′-GGCATCCACGAAACTACCTT-3′), reverse (5′-AGCACTGTGTTGGCGTACAG-3′) primers and probe (5′-HEX-ATCATGAAGTGTGACGTGGACATCCG-BHQ1–3′) were used. One-step qRT-PCR was performed in a 20 µL reaction mixture containing 10 µl 2X iTaq Universal SYBR® Green one step reaction mix (Bio-rad, California, USA), 5.17 µl RNAse free water, 0.5 µl of iScript reverse transcriptase (Bio-rad, California, USA), 4 µl of the template RNA and either 300 nM of HuNoV GI replicon primers and probe, 300 nM of β-actin primers and 200 nM of probe. Cycling conditions were: reverse transcription at 50 °C for 10 min, initial denaturation at 95 °C for 3 min, followed by 40 cycles of denaturation at 95 °C for 15 s, annealing and extension at 60 °C for 30 seconds (Roche Lightcycler®96, Roche Diagnostics, Belgium). To determine the relative expression levels of HuNoV GI replicon RNA, β-actin was used as a normalizer and ratios were calculated using the Pfaffl method. The Expression Ratio (HuNoV GI Replicon/β-actin) was calculated as: Expression Ratio = (E HuNoV)^ΔCT, HuNoV (CC – TC)/(Eβ-actin)^ΔCT, β-actin (CC – TC), where E HuNoV and Eβ-actin represent the amplification efficiency (E = 10^–1/slope) for the HuNoV GI replicon and β-actin qRT-PCR reactions, respectively. ΔCT, HuNoV (CC – TC) is the Ct of untreated control cells (CC) minus the Ct of cells treated with a compound concentration (TC) obtained with HuNoV GI replicon primers and probe. ΔCT, β-actin (CC – TC) is the Ct of untreated control cells (CC) minus the Ct of cells treated with a compound concentration (TC) obtained with β-actin primers and probe. Efficiency values (E HuNoV and Eβ-actin) were determined for each qRT-PCR reaction.

[2] = HuNoV GI replicon in HGT-1 cells, 72 h, replicon RNA by qRT-PCR
[3] = Norwalk virus, HGT-1, 72 h, read-out: EC50 values (column head printed 'M'), HuNoV GI replicon in HGT-1 cells, replicon RNA by qRT-PCR

With `Cc1ccc(C(=O)NC(=S)Nc2ccc(N3CCN(C(=O)c4cccs4)CC3)cc2)cc1` [Compound 52, 4-Methyl-N-((4-(4-(thiophene-2-carbonyl)piperazin-1-yl)phenyl)carbamothioyl)benzamide] the CC50 at 3 days [1] was greater than 100 µM, the “EC50 values (column head printed 'M')” value (HuNoV GI.1 replicon; [2]) was “low micromolar range” and the EC50 (HuNoV GI.1 replicon; [3]) was 6 µM. It also gave an EC50 (HuNoV GI.1 replicon; read-out: EC50 values (column head printed 'M'), HuNoV GI replicon in HGT-1 cells, 72 h, replicon RNA by qRT-PCR) of 6.1 ± 3.9 µM.

For `O=C(NC(=S)Nc1ccc(N2CCN(C(=O)c3cccs3)CC2)cc1)c1sc2ccccc2c1Cl` [Compound 48, 3-Chloro-N-((4-(4-(thiophene-2-carbonyl)piperazin-1-yl)phenyl)carbamothioyl)benzo[b]thiophene-2-carboxamide, reference compound], the CC50 at 3 days [1] was greater than 100 µM, the “EC50 values (column head printed 'M')” value (HuNoV GI.1 replicon; [2]) was “do not display any significant antiviral activity” and the EC50 (HuNoV GI.1 replicon; [3]) was greater than 100 µM.

With `O=C(NC(=S)Nc1ccc(N2CCN(C(=O)c3nccs3)CC2)cc1)c1sc2ccccc2c1Cl` [Compound 56, 3-Chloro-N-((4-(4-(thiazole-2-carbonyl)piperazin-1-yl)phenyl)carbamothioyl)benzo[b]thiophene-2-carboxamide] the CC50 at 3 days [1] was greater than 100 µM, the “EC50 values (column head printed 'M')” value (HuNoV GI.1 replicon; [2]) was “do not display any significant antiviral activity” and the EC50 (HuNoV GI.1 replicon; [3]) was greater than 100 µM.
